Measured values: article PMC5520492, “Inhibition of DNA2 nuclease as a therapeutic strategy targeting replication stress in cancer cells” (Oncogenesis, 2017)

Tests used:
[1] = molecular target: T1, hDNA2, Bloom syndrome and RPA (Homo sapiens, UniProt P51530); assay: Reconstituted 5' DNA end resection assay (2-kb dsDNA degradation); type: biochemical; settings: hDNA2 5 nM, Bloom syndrome 5 nM, RPA 100 nM
T1 construct: made in house
T1 sequence (P51530 1-1060): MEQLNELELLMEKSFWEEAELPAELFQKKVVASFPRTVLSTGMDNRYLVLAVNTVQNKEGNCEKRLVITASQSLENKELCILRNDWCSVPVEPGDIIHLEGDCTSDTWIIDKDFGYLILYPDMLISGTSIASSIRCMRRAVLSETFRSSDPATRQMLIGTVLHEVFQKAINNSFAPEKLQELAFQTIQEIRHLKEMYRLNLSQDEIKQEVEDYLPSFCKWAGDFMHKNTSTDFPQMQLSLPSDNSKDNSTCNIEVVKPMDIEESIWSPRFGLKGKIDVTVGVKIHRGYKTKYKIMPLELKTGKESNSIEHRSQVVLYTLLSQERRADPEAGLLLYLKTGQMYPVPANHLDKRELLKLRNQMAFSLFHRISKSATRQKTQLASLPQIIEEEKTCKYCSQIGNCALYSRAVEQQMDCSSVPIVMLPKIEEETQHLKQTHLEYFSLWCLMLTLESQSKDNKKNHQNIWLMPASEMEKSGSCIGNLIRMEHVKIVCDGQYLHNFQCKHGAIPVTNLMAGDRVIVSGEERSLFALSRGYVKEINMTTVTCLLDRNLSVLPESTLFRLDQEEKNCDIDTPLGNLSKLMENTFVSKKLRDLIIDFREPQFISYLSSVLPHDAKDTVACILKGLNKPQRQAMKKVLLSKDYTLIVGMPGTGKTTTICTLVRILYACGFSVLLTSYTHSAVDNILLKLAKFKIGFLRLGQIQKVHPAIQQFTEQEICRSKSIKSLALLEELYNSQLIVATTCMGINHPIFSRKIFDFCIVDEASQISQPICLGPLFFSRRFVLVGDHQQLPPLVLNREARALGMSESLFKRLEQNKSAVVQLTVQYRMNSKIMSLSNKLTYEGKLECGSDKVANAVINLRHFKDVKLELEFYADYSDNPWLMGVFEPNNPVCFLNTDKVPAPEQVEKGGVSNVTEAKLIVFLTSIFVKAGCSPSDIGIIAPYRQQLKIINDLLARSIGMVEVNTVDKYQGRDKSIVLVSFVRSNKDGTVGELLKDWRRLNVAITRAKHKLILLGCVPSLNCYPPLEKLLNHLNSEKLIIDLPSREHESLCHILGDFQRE
Protocol: Figure 3 Validation of the top two inhibitors identified from the high-throughput screen. […] (b, c) Dose-response curves for indicated compounds, cell based (U2OS cell line) (b) and in vitro (c). The IC50 value and the protein concentration used are indicated. Triple labeled substrate (0.1 μM) as in Figure 2a was used. The concentration range of inhibitors was 0.003–666.67 μM. […] The asterisks denote the radiolabel. Plotted are the average data from three independent experiments and the error bars represent 1 s.d.
Nuclease assays were performed in buffer R (20 mM Na-HEPES pH 7.5, 1 mM ATP, 0.1 mM DTT, 100 μg/ml bovine serum albumin, 0.05% Triton X-100, 2 mM MgCl2, 100 mM KCl) and contained 0.5 nM ends (2-kb substrate) or 5 nM ends (the ssDNA oligonucleotide PSOL6929) of DNA. Reactions containing Bloom syndrome also included an ATP regenerating system consisting of 10 mM creatine phosphate and 50 μg/ml creatine kinase. […] Gels were dried onto DEAE paper on top of Whatman filter paper (GE, Issaquah, WA, USA) and then analyzed in a BioRad Personal Molecular Imager FX phosphorimager. Band intensity was quantified using Image Lab software (Bio-Rad, Hercules, CA, USA). The fraction of DNA substrate digested was determined by measuring the amount of substrate remaining and normalizing to the total substrate in the negative control lane containing no protein.

[2] = molecular target: T2, yDna2 (Saccharomyces cerevisiae, UniProt P38859); assay: High-throughput fluorescence nuclease assay with yDna2 (triply labeled (dT)30 ssDNA); type: biochemical, yeast; settings: yeast Dna2 0.09 nM; substrate 0.1 μM; Figure 3c; read-out: IC50 (yeast Dna2), dose-response in vitro
T2 construct: made in house
Protocol: The screen entailed the use of oligonucleotide (dT)30 having a reporter fluorescent moiety, 6-FAM on the 5′ end, and the dark quenching group, Iowa Black FQ, on the 3′ end. In addition, a second dark quencher ZEN was placed between the 9th and 10th base (Figure 2a). The fluorescence emitted by 6-FAM is quenched by FRET, but it increases when DNA is degraded by Dna2. […] The inhibitory activity of the compounds was determined as a reduction in fluorescent signal compared with the dimethylsulfoxide (DMSO) only control. […] We screened ~50 000 chemical compounds from six different libraries (Supplementary Table S1) to identify chemical inhibitors of the Dna2 nuclease activity. […] The DNA2 nuclease domain is well conserved among eukaryotes, and therefore we reasoned that inhibitors of yDna2 will likely also work with the human counterpart.
Initial screen, it was performed with yDna2.[22] Then, the top candidate compounds were tested on hDNA2. Identical reaction conditions were used for assaying the nuclease activity of yDna2 and hDNA2. […] The reaction buffer was 20 mM HEPES/NaOH, pH 7.5, 60 mM KCl, 1 mM DTT, 100 μg/ml bovine serum albumin and 0.05% Triton X-100. The nuclease assay was initiated by adding MgCl2 (3 mM final concentration). T5 nuclease was assayed in the buffer (50 mM potassium acetate, pH 7.9, 20 mM Tris-acetate, 10 mM magnesium acetate and 1 mM DTT) provided by the vendor (NEB, Ipswich, MA, USA). The concentration of the fluorogenic substrate was 0.1 μM. The optimal amount of yDna2, hDNA2 and T5 nuclease was determined by utilizing the Kaleidagraph software (Reading, PA, USA) to fit the data according to Michaelis Menton Kinetics (V=V0+Vmax*x/(Km+x)). […] The Z’ value was calculated as previously described.[50] Cell proliferation was determined using 4,6-diamidino-2-phenylindole staining followed by high-throughput microscopy in a 384-well plate setup. In brief, cells were fixed with formaldehyde, washed and stained with 4,6-diamidino-2-phenylindole and the number of nuclei in each well counted by automated microscopy. The data were analyzed as described.[51]

T2 sequence (P38859 whole entry): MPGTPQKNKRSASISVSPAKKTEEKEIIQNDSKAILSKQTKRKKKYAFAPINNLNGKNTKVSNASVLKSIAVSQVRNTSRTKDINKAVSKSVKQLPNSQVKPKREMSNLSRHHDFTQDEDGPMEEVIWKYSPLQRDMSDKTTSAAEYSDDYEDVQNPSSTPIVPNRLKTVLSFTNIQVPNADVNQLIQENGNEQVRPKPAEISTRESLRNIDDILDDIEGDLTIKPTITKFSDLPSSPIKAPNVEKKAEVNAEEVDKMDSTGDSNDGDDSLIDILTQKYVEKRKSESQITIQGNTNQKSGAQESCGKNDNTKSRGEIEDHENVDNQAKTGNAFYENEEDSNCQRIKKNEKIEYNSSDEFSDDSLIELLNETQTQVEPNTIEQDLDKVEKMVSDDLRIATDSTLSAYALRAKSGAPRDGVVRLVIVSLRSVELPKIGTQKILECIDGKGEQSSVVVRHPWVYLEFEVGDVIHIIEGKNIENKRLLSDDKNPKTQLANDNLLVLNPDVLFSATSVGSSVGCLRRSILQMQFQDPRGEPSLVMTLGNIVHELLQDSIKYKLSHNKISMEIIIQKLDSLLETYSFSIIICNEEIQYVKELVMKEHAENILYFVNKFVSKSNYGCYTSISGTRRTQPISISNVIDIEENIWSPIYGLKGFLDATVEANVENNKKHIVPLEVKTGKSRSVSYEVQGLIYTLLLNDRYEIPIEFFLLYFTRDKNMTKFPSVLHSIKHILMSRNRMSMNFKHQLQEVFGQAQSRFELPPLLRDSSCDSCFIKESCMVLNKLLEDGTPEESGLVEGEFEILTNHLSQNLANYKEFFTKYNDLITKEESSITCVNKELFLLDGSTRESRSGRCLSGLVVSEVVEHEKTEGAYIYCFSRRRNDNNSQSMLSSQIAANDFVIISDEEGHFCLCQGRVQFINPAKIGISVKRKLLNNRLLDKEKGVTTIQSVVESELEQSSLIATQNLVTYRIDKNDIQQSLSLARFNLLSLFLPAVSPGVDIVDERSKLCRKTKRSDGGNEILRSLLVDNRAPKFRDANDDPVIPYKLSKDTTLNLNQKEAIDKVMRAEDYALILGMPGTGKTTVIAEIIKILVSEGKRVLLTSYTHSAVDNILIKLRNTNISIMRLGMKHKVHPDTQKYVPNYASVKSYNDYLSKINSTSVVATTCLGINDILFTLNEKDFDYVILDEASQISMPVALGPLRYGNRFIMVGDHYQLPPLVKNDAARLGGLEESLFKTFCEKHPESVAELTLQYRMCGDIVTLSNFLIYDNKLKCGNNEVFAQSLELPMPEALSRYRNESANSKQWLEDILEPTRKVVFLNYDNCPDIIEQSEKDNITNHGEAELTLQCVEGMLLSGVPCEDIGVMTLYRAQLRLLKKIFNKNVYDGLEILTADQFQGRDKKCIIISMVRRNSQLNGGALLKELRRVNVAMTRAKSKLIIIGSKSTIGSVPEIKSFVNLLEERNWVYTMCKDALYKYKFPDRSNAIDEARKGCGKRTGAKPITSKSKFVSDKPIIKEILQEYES

| SMILES | Resection in the reconstituted system [1] | IC50 [2] |
| --- | --- | --- |
| NC1=C(Br)C(=O)c2ncccc2C1=O [NSC-105808, 6-amino-7-bromoquinoline-5,8-dione] | inhibited | 2000 nM |
| O=C1C(=O)c2cc([N+](=O)[O-])ccc2-c2ccccc21 [NSC-5195242, 2-nitrophenanthrene-9,10-dione] | inhibited | 3900 nM |
